{"source": "patent US12491251B2", "about": "“Degraders of cyclin-dependent kinase 7 (CDK7) and uses thereof” (DANA-FARBER CANCER INSTITUTE, INC., priority 2019, dated 2025)", "biological_target": "T1, CDK7 (Homo sapiens, UniProt P50613)", "T1 construct": "endogenous in cells; host or cells: Jurkat cells", "T1 sequence (P50613 2-346 limits assumed)": "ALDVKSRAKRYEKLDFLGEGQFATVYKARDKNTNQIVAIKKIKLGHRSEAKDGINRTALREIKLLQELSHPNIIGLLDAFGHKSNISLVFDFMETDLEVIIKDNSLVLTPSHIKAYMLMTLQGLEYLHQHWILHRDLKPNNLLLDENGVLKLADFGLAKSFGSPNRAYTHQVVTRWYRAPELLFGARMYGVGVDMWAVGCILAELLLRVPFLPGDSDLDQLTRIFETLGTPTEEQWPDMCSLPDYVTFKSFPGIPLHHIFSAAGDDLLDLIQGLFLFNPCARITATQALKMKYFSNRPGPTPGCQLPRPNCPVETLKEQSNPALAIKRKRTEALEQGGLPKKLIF", "T1 sequence (P51946 whole entry partner)": "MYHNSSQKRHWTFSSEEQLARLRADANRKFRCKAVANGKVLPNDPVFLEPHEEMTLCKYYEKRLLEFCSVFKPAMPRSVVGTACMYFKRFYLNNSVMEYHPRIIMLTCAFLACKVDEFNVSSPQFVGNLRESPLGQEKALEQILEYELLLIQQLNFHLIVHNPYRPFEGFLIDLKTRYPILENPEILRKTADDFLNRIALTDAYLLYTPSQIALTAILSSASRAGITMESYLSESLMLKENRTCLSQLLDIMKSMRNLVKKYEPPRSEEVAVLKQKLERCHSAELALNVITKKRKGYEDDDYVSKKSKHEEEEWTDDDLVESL", "T1 sequence (P51948 whole entry partner)": "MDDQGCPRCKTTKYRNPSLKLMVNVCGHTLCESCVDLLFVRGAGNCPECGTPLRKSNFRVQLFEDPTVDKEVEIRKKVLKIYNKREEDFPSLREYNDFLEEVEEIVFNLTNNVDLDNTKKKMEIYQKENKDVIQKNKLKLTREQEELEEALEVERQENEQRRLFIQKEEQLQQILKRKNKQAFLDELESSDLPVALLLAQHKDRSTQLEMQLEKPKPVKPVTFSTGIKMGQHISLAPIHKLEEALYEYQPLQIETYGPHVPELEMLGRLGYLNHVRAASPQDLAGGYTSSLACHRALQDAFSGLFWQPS", "assay": "CDK7 degradation in Jurkat cells by immunoblot", "type": "cell-based", "settings": "1 μM compound, 6 hours, vs DMSO", "experimental": "Jurkat cells were treated with DMSO or 1 μM of compounds 1-26 for 6 hours. Cells were then lysed in radioimmunoprecipitation assay (RIPA) buffer (Sigma® Life Science) containing protease/phosphatase inhibitor cocktail (Roche). The protein concentrations were measured by bicinchoninic acid assay (BCA) analysis (Pierce™). Equal amounts of protein were resolved by 4-12% Tris-Base gels (Invitrogen™), and then transferred to the immunoblot polyvinylidene difluoride (PVDF) membrane (BioRad), and immunoblotted with primary antibodies against CDK7 (cell signaling) and glyceraldehyde 3-phosphate dehydrogenase (GAPDH) (Cell Signaling Technology®), and then immunoblotted with IRDye®800-labeled goat anti-rabbit immunoglobulin G (IgG) and IRDye®680-labeled goat anti-mouse IgG (LI-COR®) secondary antibodies. The membranes were detected on an Odyssey® CLx system.", "data": [{"smiles": "CN(C)C[C@@H](NC(=O)N1Cc2c(NC(=O)c3ccc(C(=O)NCCOCCOCCOCCNc4cccc5c4C(=O)N(C4CCC(=O)NC4=O)C5=O)cc3)n[nH]c2C1(C)C)c1ccccc1", "note": "(stereo partly drawn) [Compound 1, N1-(5-(((S)-2-(dimethylamino)-1-phenylethyl)carbamoyl)-6,6-dimethyl-1,4,5,6-tetrahydropyrrolo[3,4-c]pyrazol-3-yl)-N4-(2-(2-(2-(2-((2-(2,6-dioxopiperidin-3-yl)-1,3-dioxoisoindolin-4-yl)amino)ethoxy)ethoxy)ethoxy)ethyl)terephthalamide]", "values": [{"measurement": "degradation of CDK7 (immunoblot)", "result": "induced the degradation of CDK7"}]}, {"smiles": "Cc1ncsc1-c1ccc([C@H](C)NC(=O)[C@@H]2C[C@@H](O)CN2C(=O)[C@@H](NC(=O)CCOCCOCCNC(=O)c2ccc(C(=O)Nc3n[nH]c4c3CN(C(=O)N[C@H](CN(C)C)c3ccccc3)C4(C)C)cc2)C(C)(C)C)cc1", "note": "[Compound 6]", "values": [{"measurement": "degradation of CDK7 (immunoblot)", "result": "induced the degradation of CDK7"}]}, {"smiles": "CN(C)C[C@@H](NC(=O)N1Cc2c(NC(=O)c3ccc(C(=O)NCCCCC#Cc4cccc5c4C(=O)N(C4CCC(=O)NC4=O)C5=O)cc3)n[nH]c2C1(C)C)c1ccccc1", "note": "(stereo partly drawn) [Compound 7, N^1-(5-(((S)-2-(dimethylamino)-1-phenylethyl)carbamoyl)-6,6-dimethyl-1,4,5,6-tetrahydropyrrolo[3,4-c]pyrazol-3-yl)-N^4-(6-(2-(2,6-dioxopiperidin-3-yl)-1,3-dioxoisoindolin-4-yl)hex-5-yn-1-yl)terephthalamide]", "values": [{"measurement": "degradation of CDK7 (immunoblot)", "result": "induced the degradation of CDK7"}]}, {"smiles": "CN(C)C[C@@H](NC(=O)N1Cc2c(NC(=O)c3ccc(C(=O)NCCCCCOc4cccc5c4C(=O)N(C4CCC(=O)NC4=O)C5=O)cc3)n[nH]c2C1(C)C)c1ccccc1", "note": "(stereo partly drawn) [Compound 8, N^1-(5-(((S)-2-(dimethylamino)-1-phenylethyl)carbamoyl)-6,6-dimethyl-1,4,5,6-tetrahydropyrrolo[3,4-c]pyrazol-3-yl)-N^4-(5-((2-(2,6-dioxopiperidin-3-yl)-1,3-dioxoisoindolin-4-yl)oxy)pentyl)terephthalamide]", "values": [{"measurement": "degradation of CDK7 (immunoblot)", "result": "induced the degradation of CDK7"}]}, {"smiles": "CN(C)C[C@@H](NC(=O)N1Cc2c(NC(=O)c3ccc(C(=O)NCCCCCCCCOc4cccc5c4C(=O)N(C4CCC(=O)NC4=O)C5=O)cc3)n[nH]c2C1(C)C)c1ccccc1", "note": "(stereo partly drawn) [Compound 9, N^1-(5-(((S)-2-(dimethylamino)-1-phenylethyl)carbamoyl)-6,6-dimethyl-1,4,5,6-tetrahydropyrrolo[3,4-c]pyrazol-3-yl)-N^4-(8-((2-(2,6-dioxopiperidin-3-yl)-1,3-dioxoisoindolin-4-yl)oxy)octyl)terephthalamide]", "values": [{"measurement": "degradation of CDK7 (immunoblot)", "result": "induced the degradation of CDK7"}]}, {"smiles": "CN(C)C[C@@H](NC(=O)N1Cc2c(NC(=O)c3ccc(NC(=O)CCCCCCCCCCOc4cccc5c4C(=O)N(C4CCC(=O)NC4=O)C5=O)cc3)n[nH]c2C1(C)C)c1ccccc1", "note": "(stereo partly drawn) [Compound 10, N—((S)-2-(dimethylamino)-1-phenylethyl)-3-(4-(11-((2-(2,6-dioxopiperidin-3-yl)-1,3-dioxoisoindolin-4-yl)oxy)undecanamido)benzamido)-6,6-dimethyl-4,6-dihydropyrrolo[3,4-c]pyrazole-5(1H)-carboxamide]", "values": [{"measurement": "degradation of CDK7 (immunoblot)", "result": "induced the degradation of CDK7"}]}, {"smiles": "Cc1ncsc1-c1ccc([C@H](C)NC(=O)[C@@H]2C[C@@H](O)CN2C(=O)[C@@H](NC(=O)CCCCCNC(=O)c2ccc(C(=O)Nc3n[nH]c4c3CN(C(=O)N[C@H](CN(C)C)c3ccccc3)C4(C)C)cc2)C(C)(C)C)cc1", "note": "[Compound 12, N^1-(5-(((S)-2-(dimethylamino)-1-phenylethyl)carbamoyl)-6,6-dimethyl-1,4,5,6-tetrahydropyrrolo[3,4-c]pyrazol-3-yl)-N^4-(6-(((S)-1-((2S,4R)-4-hydroxy-2-(((S)-1-(4-(4-methylthiazol-5-yl)phenyl)ethyl)carbamoyl)pyrrolidin-1-yl)-3,3-dimethyl-1-oxobutan-2-yl)amino)-6-oxohexyl)terephthalamide]", "values": [{"measurement": "degradation of CDK7 (immunoblot)", "result": "induced the degradation of CDK7"}]}, {"smiles": "CN(C)C[C@@H](NC(=O)N1Cc2c(NC(=O)c3ccc(C(=O)NCCCCCCc4cccc5c4C(=O)N(C4CCC(=O)NC4=O)C5=O)cc3)n[nH]c2C1(C)C)c1ccccc1", "note": "(stereo partly drawn) [Compound 13, N^1-(5-(((S)-2-(dimethylamino)-1-phenylethyl)carbamoyl)-6,6-dimethyl-1,4,5,6-tetrahydropyrrolo[3,4-c]pyrazol-3-yl)-N^4-(6-(2-(2,6-dioxopiperidin-3-yl)-1,3-dioxoisoindolin-4-yl)hexyl)terephthalamide]", "values": [{"measurement": "degradation of CDK7 (immunoblot)", "result": "induced the degradation of CDK7"}]}, {"smiles": "Cc1ncsc1-c1ccc([C@H](C)NC(=O)[C@@H]2C[C@@H](O)CN2C(=O)[C@@H](NC(=O)CCOCCNC(=O)c2ccc(C(=O)Nc3n[nH]c4c3CN(C(=O)N[C@H](CN(C)C)c3ccccc3)C4(C)C)cc2)C(C)(C)C)cc1", "note": "[Compound 15, N^1-(5-(((S)-2-(dimethylamino)-1-phenylethyl)carbamoyl)-6,6-dimethyl-1,4,5,6-tetrahydropyrrolo[3,4-c]pyrazol-3-yl)-N^4-(2-(3-(((S)-1-((2S,4R)-4-hydroxy-2-(((S)-1-(4-(4-methylthiazol-5-yl)phenyl)ethyl)carbamoyl)pyrrolidin-1-yl)-3,3-dimethyl-1-oxobutan-2-yl)amino)-3-oxopropoxy)ethyl)terephthalamide]", "values": [{"measurement": "degradation of CDK7 (immunoblot)", "result": "induced the degradation of CDK7"}]}, {"smiles": "CN(C)C[C@@H](NC(=O)N1Cc2c(NC(=O)c3ccc(NC(=O)CCCNc4cccc5c4C(=O)N(C4CCC(=O)NC4=O)C5=O)cc3)n[nH]c2C1(C)C)c1ccccc1", "note": "(stereo partly drawn) [Compound 16, N—((S)-2-(dimethylamino)-1-phenylethyl)-3-(4-(4-((2-(2,6-dioxopiperidin-3-yl)-1,3-dioxoisoindolin-4-yl)amino)butanamido)benzamido)-6,6-dimethyl-4,6-dihydropyrrolo[3,4-c]pyrazole-5(1H)-carboxamide]", "values": [{"measurement": "degradation of CDK7 (immunoblot)", "result": "induced the degradation of CDK7"}]}, {"smiles": "CN(C)C[C@@H](NC(=O)N1Cc2c(NC(=O)c3ccc(C(=O)NCCCCCNc4ccc5c(c4)C(=O)N(C4CCC(=O)NC4=O)C5=O)cc3)n[nH]c2C1(C)C)c1ccccc1", "note": "(stereo partly drawn) [Compound 21, N^1-(5-(((S)-2-(dimethylamino)-1-phenylethyl)carbamoyl)-6,6-dimethyl-1,4,5,6-tetrahydropyrrolo[3,4-c]pyrazol-3-yl)-N^4-(5-((2-(2,6-dioxopiperidin-3-yl)-1,3-dioxoisoindolin-5-yl)amino)pentyl)terephthalamide]", "values": [{"measurement": "degradation of CDK7 (immunoblot)", "result": "induced the degradation of CDK7"}]}, {"smiles": "Cc1ncsc1-c1ccc([C@H](C)NC(=O)[C@@H]2C[C@@H](O)CN2C(=O)[C@@H](NC(=O)CCCCCCNC(=O)c2ccc(C(=O)Nc3n[nH]c4c3CN(C(=O)N[C@H](CN(C)C)c3ccccc3)C4(C)C)cc2)C(C)(C)C)cc1", "note": "[Compound 22, N^1-(5-(((S)-2-(dimethylamino)-1-phenylethyl)carbamoyl)-6,6-dimethyl-1,4,5,6-tetrahydropyrrolo[3,4-c]pyrazol-3-yl)-N^4-(7-(((S)-1-((2S,4R)-4-hydroxy-2-(((S)-1-(4-(4-methylthiazol-5-yl)phenyl)ethyl)carbamoyl)pyrrolidin-1-yl)-3,3-dimethyl-1-oxobutan-2-yl)amino)-7-oxoheptyl)terephthalamide]", "values": [{"measurement": "degradation of CDK7 (immunoblot)", "result": "induced the degradation of CDK7"}]}, {"smiles": "Cc1ncsc1-c1ccc([C@H](C)NC(=O)[C@@H]2C[C@@H](O)CN2C(=O)[C@@H](NC(=O)CCCCCCCNC(=O)c2ccc(C(=O)Nc3n[nH]c4c3CN(C(=O)N[C@H](CN(C)C)c3ccccc3)C4(C)C)cc2)C(C)(C)C)cc1", "note": "[Compound 23, N^1-(5-(((S)-2-(dimethylamino)-1-phenylethyl)carbamoyl)-6,6-dimethyl-1,4,5,6-tetrahydropyrrolo[3,4-c]pyrazol-3-yl)-N^4-(8-(((S)-1-((2S,4R)-4-hydroxy-2-(((S)-1-(4-(4-methylthiazol-5-yl)phenyl)ethyl)carbamoyl)pyrrolidin-1-yl)-3,3-dimethyl-1-oxobutan-2-yl)amino)-8-oxooctyl)terephthalamide]", "values": [{"measurement": "degradation of CDK7 (immunoblot)", "result": "induced the degradation of CDK7"}]}, {"smiles": "Cc1ncsc1-c1ccc([C@H](C)NC(=O)[C@@H]2C[C@@H](O)CN2C(=O)[C@@H](NC(=O)CCOCCOCCOCCNC(=O)c2ccc(C(=O)Nc3n[nH]c4c3CN(C(=O)N[C@H](CN(C)C)c3ccccc3)C4(C)C)cc2)C(C)(C)C)cc1", "note": "[Compound 25, N^1-(5-(((S)-2-(dimethylamino)-1-phenylethyl)carbamoyl)-6,6-dimethyl-1,4,5,6-tetrahydropyrrolo[3,4-c]pyrazol-3-yl)-N^4—((S)-14-((2S,4R)-4-hydroxy-2-(((S)-1-(4-(4-methylthiazol-5-yl)phenyl)ethyl)carbamoyl)pyrrolidine-1-carbonyl)-15,15-dimethyl-12-oxo-3,6,9-trioxa-13-azahexadecyl)terephthalamide]", "values": [{"measurement": "degradation of CDK7 (immunoblot)", "result": "induced the degradation of CDK7"}]}, {"smiles": "CN(C)C[C@@H](NC(=O)N1Cc2c(NC(=O)c3ccc(C(=O)NCCOCCOCCNc4cccc5c4C(=O)N(C4CCC(=O)NC4=O)C5=O)cc3)n[nH]c2C1(C)C)c1ccccc1", "note": "(stereo partly drawn) [Compound 26, N^1-(5-(((S)-2-(dimethylamino)-1-phenylethyl)carbamoyl)-6,6-dimethyl-1,4,5,6-tetrahydropyrrolo[3,4-c]pyrazol-3-yl)-N^4-(2-(2-(2-((2-(2,6-dioxopiperidin-3-yl)-1,3-dioxoisoindolin-4-yl)amino)ethoxy)ethoxy)ethyl)terephthalamide]", "values": [{"measurement": "degradation of CDK7 (immunoblot)", "result": "induced the degradation of CDK7"}]}]}
